Results from patent publication US20220257646A1, “COMPOSITIONS AND METHODS FOR TREATING SKIN CONDITIONS” (The Regents of the University of California, priority 2019, published 2022).

Tested on: P. acnes strains
Experiment: Porphyrin production by P. acnes strains in culture media (iron/cobalt supplemented or depleted)
Format: cell-based, Propionibacterium acnes

SMILES: [Co] [cobalt]
- porphyrin production (depletion of cobalt, P. acnes (FIG. 5)): significantly promoted the porphyrin production

SMILES: [Fe] [iron]
- porphyrin production (acne associated P. acnes strains (FIG. 4)): reduces porphyrin production
- chelator effect on porphyrin production (iron added back to iron depleted (chelated) media, P. acnes strains (FIG. 4)): diminishes chelator effect
- porphyrin production (iron depletion, acne associated P. acnes strains (FIG. 6)): increases porphyrin production
- porphyrin production (iron supplemented in the media, P. acnes strains (FIG. 1)): low porphyrin production
- effect of iron depletion on porphyrin production (vitamin B12 supplemented conditions, acne associated P. acnes strains (FIG. 6)): remains
